# Laboratory results as given in patent publication US11912693B2, “Compounds for modulating S1P1 activity and methods of using the same” (TREVENA, INC., priority 2017, dated 2024).
# Experiments:
# [1] = molecular target: T1, human sphingosine-1-phosphate receptor 1 (S1P1) (Homo sapiens (Human), UniProt P21453); experiment: Inhibition of cAMP production (HTRF cAMP HiRange), S1P1 CHO-K1 cells; assay type: cell-based; details: for Emax: CHO-K1, efficacy (SPAN) normalized to fingolimod, read-out: hS1P1 cAMP SPAN; for hS1P1 cAMP pEC50: inhibition of cAMP production, S1P1 CHO-K1 cells
# Method in brief: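 CHO-K1 cells stably co-expressing human S1P1 (C-terminal Prolink tag) and EA-β-arrestin2 were grown in AssayComplete Media 6 at 37° C. and 5% CO2, plated, and incubated overnight. Agonist-driven inhibition of intracellular cAMP was read by TR-FRET with the HTRF cAMP HiRange kit on a PheraStar reader. Potency is pEC50, and efficacy (SPAN) is normalized to fingolimod.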
# Target sequence in this assay (P21453 whole entry, looked up): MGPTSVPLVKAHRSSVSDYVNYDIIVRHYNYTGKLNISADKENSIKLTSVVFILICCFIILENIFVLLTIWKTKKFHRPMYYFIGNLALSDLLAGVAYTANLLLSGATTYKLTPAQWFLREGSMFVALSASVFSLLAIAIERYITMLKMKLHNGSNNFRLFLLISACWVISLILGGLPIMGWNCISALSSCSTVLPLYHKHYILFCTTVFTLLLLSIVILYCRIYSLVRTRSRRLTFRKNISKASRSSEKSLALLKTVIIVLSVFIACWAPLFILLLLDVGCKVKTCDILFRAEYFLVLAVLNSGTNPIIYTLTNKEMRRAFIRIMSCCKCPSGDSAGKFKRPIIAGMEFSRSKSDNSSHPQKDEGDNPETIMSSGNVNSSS
# [2] = molecular target: T1, human sphingosine-1-phosphate receptor 1 (S1P1); experiment: β-Arrestin2 recruitment assay (PathHunter), S1P1 CHO-K1 cells; assay type: cell-based; details: for Emax: CHO-K1, efficacy (SPAN) normalized to fingolimod, read-out: hS1P1 B-arrestin2 SPAN; for hS1P1 B-arrestin2 pEC50: β-arrestin2 recruitment, S1P1 CHO-K1 cells
# Method in brief: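 Enzyme-fragment complementation read-out: agonist-driven β-arrestin2 binding to ProLink-tagged human S1P1 in stable CHO-K1 cells restores β-galactosidase, measured 1 h at room temperature after a 60 min 37° C. compound incubation. Potency as pEC50, efficacy relative to fingolimod (SPAN).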
# Target sequence in this assay (P21453 whole entry, looked up): as above
# Target sequence in this assay (P32121 whole entry partner, looked up): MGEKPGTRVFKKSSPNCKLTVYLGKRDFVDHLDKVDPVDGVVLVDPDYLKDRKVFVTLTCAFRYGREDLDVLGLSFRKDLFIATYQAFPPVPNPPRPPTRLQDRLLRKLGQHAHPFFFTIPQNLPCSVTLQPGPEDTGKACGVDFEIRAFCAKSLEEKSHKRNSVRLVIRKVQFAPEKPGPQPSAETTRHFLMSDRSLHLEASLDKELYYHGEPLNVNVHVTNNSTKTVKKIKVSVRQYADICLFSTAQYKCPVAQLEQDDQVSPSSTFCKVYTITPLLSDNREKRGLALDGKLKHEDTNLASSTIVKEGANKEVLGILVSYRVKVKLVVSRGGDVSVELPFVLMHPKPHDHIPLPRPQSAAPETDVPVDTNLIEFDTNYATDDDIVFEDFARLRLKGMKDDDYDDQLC
Emax [1],hS1P1 cAMP pEC50 [1],Emax [2],hS1P1 B-arrestin2 pEC50 [2],Compound
> 75%,>6.5,> 75%,>5,"CC(C)n1ncc2cc(-c3nc(-c4ccccc4OC(F)(F)F)no3)ccc21 [Compound 331, 5-(1-isopropyl-1H-indazol-5-yl)-3-(2-(trifluoromethoxy)phenyl)-1,2,4-oxadiazole]"
> 75%,>6.5,> 75%,>5,"CC(C)n1ncc2cc(-c3nc(-c4ccccc4Br)no3)ccc21 [Compound 332, 3-(2-bromophenyl)-5-(1-isopropyl-1H-indazol-5-yl)-1,2,4-oxadiazole]"
> 75%,>6.5,> 75%,<5,"CC(C)n1ncc2cc(-c3nc(-c4ccccc4O)no3)ccc21 [Compound 333, 2-(5-(1-isopropyl-1H-indazol-5-yl)-1,2,4-oxadiazol-3-yl)phenol]"
> 75%,<6.5,> 75%,<5,"CC(C)Oc1ccccc1-c1noc(-c2ccc3c(cnn3C(C)C)c2)n1 [Compound 334, 3-(2-isopropoxyphenyl)-5-(1-isopropyl-1H-indazol-5-yl)-1,2,4-oxadiazole]"
< 75%,<6.5,< 75%,<5,"COc1cccc(OC)c1-c1noc(-c2ccc3c(cnn3C(C)C)c2)n1 [Compound 335, 3-(2,6-dimethoxyphenyl)-5-(1-isopropylindazol-5-yl)-1,2,4-oxadiazole]"
> 75%,>6.5,< 75%,>5,"CC(C)n1ncc2cc(-c3nc(-c4cccc5c4OCO5)no3)ccc21 [Compound 336, 3-(benzo[d][1,3]dioxol-4-yl)-5-(1-isopropyl-1H-indazol-5-yl)-1,2,4-oxadiazole]"
> 75%,>6.5,> 75%,>5,"CC(C)n1ncc2cc(-c3nc(-c4cccc5c4OCCC5)no3)ccc21 [Compound 337, 3-chroman-8-yl-5-(1-isopropylindazol-5-yl)-1,2,4-oxadiazole]"
> 75%,<6.5,> 75%,<5,"COc1cccc(F)c1-c1noc(-c2ccc3c(cnn3C(C)C)c2)n1 [Compound 338, 3-(2-fluoro-6-methoxy-phenyl)-5-(1-isopropylindazol-5-yl)-1,2,4-oxadiazole]"
,<6.5,,<5,"COc1ccccc1-c1nnc(-c2ccc3[nH]oc(=O)c3c2)o1 [Compound 339, 5-[5-(2-methoxyphenyl)-1,3,4-oxadiazol-2-yl]-1,3-dihydro-2,1-benzoxazol-3-one]"
,<6.5,,<5,"COc1ccccc1-c1nnc(-c2ccc3c(c2)c(=O)on3C)o1 [Compound 340, 5-[5-(2-methoxyphenyl)-1,3,4-oxadiazol-2-yl]-1-methyl-1,3-dihydro-2,1-benzoxazol-3-one]"
,<6.5,,<5,"COc1ccccc1-c1nnc(-c2ccc3c(c2)CCC(=O)N3)o1 [Compound 341, 6-[5-(2-methoxyphenyl)-1,3,4-oxadiazol-2-yl]-1,2,3,4-tetrahydroquinolin-2-one]"
< 75%,<6.5,< 75%,<5,"COC(=O)NS(=O)(=O)n1c(=O)oc2cc(-c3nnc(-c4ccccc4OC)o3)ccc21 [Compound 342, methyl N-({6-[5-(2-methoxyphenyl)-1,3,4-oxadiazol-2-yl]-2-oxo-2,3-dihydro-1,3-benzoxazol-3-yl}sulfonyl)carbamate]"
> 75%,>6.5,> 75%,>5,"N#Cc1cc(-c2nc(-c3ccc4c(c3)CCC(=O)N4)no2)ccc1NCCF [Compound 343, 2-[(2-fluoroethyl)amino]-5-[3-(2-oxo-1,2,3,4-tetrahydroquinolin-6-yl)-1,2,4-oxadiazol-5-yl]benzonitrile]"
> 75%,>6.5,> 75%,>5,"N#Cc1cc(-c2nc(-c3ccc4c(c3)CCC(=O)N4)no2)ccc1NCC(F)F [Compound 344, 2-[(2,2-difluoroethyl)amino]-5-[3-(2-oxo-1,2,3,4-tetrahydroquinolin-6-yl)-1,2,4-oxadiazol-5-yl]benzonitrile]"
< 75%,<6.5,< 75%,<5,"N#Cc1cc(-c2nc(-c3ccc4c(c3)CCC(=O)N4)no2)ccc1N [Compound 345, 2-amino-5-[3-(2-oxo-1,2,3,4-tetrahydroquinolin-6-yl)-1,2,4-oxadiazol-5-yl]benzonitrile]"
> 75%,>6.5,> 75%,>5,"C=C(F)CNc1ccc(-c2nc(-c3ccc4c(c3)CCC(=O)N4)no2)cc1C#N [Compound 346, 2-[(2-fluoroprop-2-en-1-yl)amino]-5-[3-(2-oxo-1,2,3,4-tetrahydroquinolin-6-yl)-1,2,4-oxadiazol-5-yl]benzonitrile]"
> 75%,>6.5,> 75%,>5,"CC(F)(F)CNc1ccc(-c2nc(-c3ccc4c(c3)CCC(=O)N4)no2)cc1C#N [Compound 347, 2-[(2,2-difluoropropyl)amino]-5-[3-(2-oxo-1,2,3,4-tetrahydroquinolin-6-yl)-1,2,4-oxadiazol-5-yl]benzonitrile]"
< 75%,>6.5,< 75%,<5,"COc1ccccc1-c1nnc(-c2ccc3[nH]c(=O)oc3c2)o1 [Compound 349, 6-[5-(2-methoxyphenyl)-1,3,4-oxadiazol-2-yl]-2,3-dihydro-1,3-benzoxazol-2-one]"
> 75%,>6.5,> 75%,>5,"CC(C)Nc1ccc(-c2nnc(-c3ccc4[nH]ncc4c3)o2)cc1C#N [Compound 351, 5-[5-(1H-indazol-5-yl)-1,3,4-oxadiazol-2-yl]-2-[(propan-2-yl)amino]benzonitrile]"
> 75%,>6.5,> 75%,>5,"N#Cc1cc(-c2nnc(-c3ccc4[nH]ncc4c3)o2)ccc1NCC1CC1 [Compound 352, 2-[(cyclopropylmethyl)amino]-5-[5-(1H-indazol-5-yl)-1,3,4-oxadiazol-2-yl]benzonitrile]"
> 75%,>6.5,> 75%,>5,"N#Cc1cc(-c2nnc(-c3ccc4[nH]ncc4c3)o2)ccc1NCCF [Compound 353, 2-[(2-fluoroethyl)amino]-5-[5-(1H-indazol-5-yl)-1,3,4-oxadiazol-2-yl]benzonitrile]"

Compound,Emax [1],hS1P1 cAMP pEC50 [1],Emax [2],hS1P1 B-arrestin2 pEC50 [2]
"COc1ccccc1-c1nnc(-c2ccc3c(c2)oc(=O)n3C)o1 [Compound 350, 6-[5-(2-methoxyphenyl)-1,3,4-oxadiazol-2-yl]-3-methyl-2,3-dihydro-1,3-benzoxazol-2-one]",< 75%,<6.5,< 75%,<5
